# Test results: PubChem BioAssay (NCI)
#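 Abbreviation: GI50, concentration required for 50% inhibition of growth. TGI denotes the concentration required for complete inhibition of growth.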
# Assays:
# Test in all cases: NCI anticancer screen, dose series, 384-well format
# [1] = test system: OVCAR-4 ovarian
# [2] = test system: BT-549 breast
# [3] = test system: NCI/ADR-RES ovarian
# [4] = test system: HT29 colon
# [5] = test system: KM12 colon
# [6] = test system: NCI-H522 lung
# [7] = test system: HOP-92 NSCLC
# [8] = test system: A498 renal
# [9] = test system: LOX IMVI melanoma
# [10] = test system: NCI-H23 lung
# [11] = test system: SNB-19 CNS
# [12] = test system: MCF7 breast
# [13] = test system: COLO 205 colon
# [14] = test system: NCI-H322M lung
# [15] = test system: CAKI-1 renal
# [16] = test system: HCC-2998 colon
# [17] = test system: NCI-H226 lung
# [18] = test system: UO-31 renal
# [19] = test system: K-562 leukemia
# [20] = test system: SW-620 colon
# [21] = test system: OVCAR-8 ovarian
# [22] = test system: SK-MEL-28 melanoma
# [23] = test system: PC-3 prostate
# [24] = test system: 786-0 renal
# [25] = test system: UACC-257 melanoma
# [26] = test system: MDA-MB-231 breast
# [27] = test system: MDA-MB-468 breast
# [28] = test system: IGROV1 ovarian
# [29] = test system: ACHN renal
# [30] = test system: SF-539 CNS
# [31] = test system: SN12C renal
# [32] = test system: HS 578T breast
# [33] = test system: HL-60(TB) leukemia
# [34] = test system: HCT-15 colon
# [35] = test system: SNB-75 CNS
# [36] = test system: SK-OV-3 ovarian
# [37] = test system: DU-145 prostate
# [38] = test system: HOP-62 NSCLC
# [39] = test system: UACC-62 melanoma
# [40] = test system: SF-295 CNS
# [41] = test system: EKVX NSCLC
# [42] = test system: HCT-116 colon
# [43] = test system: SK-MEL-5 melanoma
# [44] = test system: RPMI-8226 leukemia
# [45] = test system: OVCAR-5 ovarian
# [46] = test system: TK-10 renal
# [47] = test system: M14 melanoma
# [48] = test system: OVCAR-3 ovarian
# [49] = test system: NCI-H460 NSCLC
# [50] = test system: T-47D breast
# [51] = test system: RXF 393 renal
# [52] = test system: A549 NSCLC
# [53] = test system: SF-268 CNS
# [54] = test system: MALME-3M melanoma
# [55] = test system: CCRF-CEM leukemia
# [56] = test system: MDA-MB-435 melanoma
# [57] = test system: U251 glioblastoma
# [58] = test system: MOLT-4 leukemia
structure (smiles),measurement,setting,value
CCOc1ccn(-c2ccc(F)cc2)c(=O)c1C(=O)Nc1ccc(Oc2ccnc(N)c2Cl)c(F)c1,GI50,[1],8.05 µM
same,TGI,[1],> 100 µM
same,GI50,[2],8.41 µM
same,TGI,[2],27.8 µM
same,GI50,[3],10.1 µM
same,TGI,[3],28.7 µM
same,GI50,[4],4.42 µM
same,TGI,[4],23.3 µM
same,GI50,[5],0.314 µM
same,TGI,[5],> 100 µM
same,GI50,[6],4.35 µM
same,TGI,[6],15.7 µM
same,GI50,[7],5.06 µM
same,TGI,[7],25.9 µM
same,GI50,[8],5.04 µM
same,TGI,[8],85.8 µM
same,GI50,[9],5.57 µM
same,TGI,[9],18.2 µM
same,GI50,[10],2.64 µM
same,TGI,[10],24.6 µM
same,GI50,[11],22.4 µM
same,TGI,[11],> 100 µM
same,GI50,[12],11.2 µM
same,TGI,[12],> 100 µM
same,GI50,[13],2.06 µM
same,TGI,[13],4.32 µM
same,GI50,[14],29.3 µM
same,TGI,[14],> 100 µM
same,GI50,[15],4.4 µM
same,TGI,[15],23.1 µM
same,GI50,[16],24.3 µM
same,TGI,[16],68.1 µM
same,GI50,[17],9.81 µM
same,TGI,[17],> 100 µM
same,GI50,[18],8.63 µM
same,TGI,[18],59.3 µM
same,GI50,[19],1.6 µM
same,TGI,[19],3.62 µM
same,GI50,[20],12 µM
same,TGI,[20],28.9 µM
same,GI50,[21],14.3 µM
same,TGI,[21],48.1 µM
same,GI50,[22],5.1 µM
same,TGI,[22],38.7 µM
same,GI50,[23],4.15 µM
same,TGI,[23],90.3 µM
same,GI50,[24],33.4 µM
same,TGI,[24],> 100 µM
same,GI50,[25],6.47 µM
same,TGI,[25],27.5 µM
same,GI50,[26],9.78 µM
same,TGI,[26],49.3 µM
same,GI50,[27],3.97 µM
same,TGI,[27],10.3 µM
same,GI50,[28],6.27 µM
same,TGI,[28],40.5 µM
same,GI50,[29],10.8 µM
same,TGI,[29],> 100 µM
same,GI50,[30],5.67 µM
same,TGI,[30],26.9 µM
same,GI50,[31],1.95 µM
same,TGI,[31],46.2 µM
same,GI50,[32],5.13 µM
same,TGI,[32],21.2 µM
same,GI50,[33],5.02 µM
same,TGI,[33],13.6 µM
same,GI50,[34],4.27 µM
same,TGI,[34],27.7 µM
same,GI50,[35],15.4 µM
same,TGI,[35],35.1 µM
same,GI50,[36],4.37 µM
same,TGI,[36],20.9 µM
same,GI50,[37],7.49 µM
same,TGI,[37],> 100 µM
same,GI50,[38],8.81 µM
same,TGI,[38],98.3 µM
same,GI50,[39],2.62 µM
same,TGI,[39],12.4 µM
same,GI50,[40],3.81 µM
same,TGI,[40],57.7 µM
same,GI50,[41],9.83 µM
same,TGI,[41],58.6 µM
same,GI50,[42],4.85 µM
same,TGI,[42],18.4 µM
same,GI50,[43],2.99 µM
same,TGI,[43],12.2 µM
same,GI50,[44],3.52 µM
same,TGI,[44],> 100 µM
same,GI50,[45],19.7 µM
same,TGI,[45],> 100 µM
same,GI50,[46],16.2 µM
same,TGI,[46],95 µM
same,GI50,[47],2.95 µM
same,TGI,[47],11.1 µM
same,GI50,[48],5.47 µM
same,TGI,[48],27.3 µM
same,GI50,[49],3.35 µM
same,TGI,[49],12.1 µM
same,GI50,[50],1.67 µM
same,TGI,[50],4.29 µM
same,GI50,[51],4 µM
same,TGI,[51],18.6 µM
same,GI50,[52],7.37 µM
same,TGI,[52],26.3 µM
same,GI50,[53],2.01 µM
same,TGI,[53],8.11 µM
same,GI50,[54],4.88 µM
same,TGI,[54],20.7 µM
same,GI50,[55],1.91 µM
same,TGI,[55],3.51 µM
same,GI50,[56],6.2 µM
same,TGI,[56],39.5 µM
same,GI50,[57],16.3 µM
same,TGI,[57],> 100 µM
same,GI50,[58],1.44 µM
same,TGI,[58],2.9 µM
